Experimental data published in US20030026831A1, “Anionic liposomes for delivery of bioactive agents” (priority 2001, published 2003).
Read-outs that look alike come from different tables or passages of the source.

Assays:
hippocampal neurons [1] = assay type: cell-based, rat; conditions: for Neuronal survival after glutamate: survival at 48 hours
Experimental: Hippocampal Cell Culture. Primary cultures of hippocampal neurons were prepared from neonatal rat pups (p1 or p2) as previously described (Dubinsky, 1993). Neurons were plated at a density of 60,000 cells/cm^2 onto polylysine-coated plastic 12-well plates or 100 mm dishes (Becton Dickinson, Franklin Lakes, N.J.) in Neurobasal medium with B27 supplements (Life technologies, Rockville, Md.) and 0.5 mM glutamine. Fluorodeoxyuridine (15 μg/ml) was added to the cultures 24 hours after plating to inhibit glial growth. Under these culture conditions, the survival and growth of non-neuronal cells was minimized. Cells were maintained at 37° C. in 95% air/5% CO2 and were used between 6-8 days in vitro.
Neuroprotection Experiments. […] The ratio of viable cells to the total number of neurons in the pre-selected fields was calculated for quantifying survival.

hippocampal neurons [2] = experiment: Lipid exacerbation of sub-maximal glutamate toxicity
Experimental: FIG. 9. […] Arrowhead: amount of anionic lipid present in liposomes corresponding to a 1 μM final concentration of ON. Arrow: amount of cationic lipid present in complexes corresponding to a +/−charge ratio of 1/2 and 1 μM final concentration of ON. 20, 40, and 100 μg DC-Chol/DOPE correspond to amounts present in complexes of +/−charge ratio 1.6/1, 3.2/1, and 8/1 (μmole lipid/μmole ON), respectively, for a 1 μM final ON concentration. Data expressed as Mean ±S.E.M., n≧9.
Neurons were treated with amounts of cationic lipid required to complex 1 μM ONs in +/−charge ratios (μmole lipid/μmole ON) of 1/2, 1.6/1, 3.2/1 and 8/1 (6.25, 20, 40 and 100 μg DC-Chol, respectively).

neurons = experiment: Toxicity screening of commercial cationic lipids; conditions: 8 hours after incubation, compared to untreated controls
hippocampal neurons [3] = experiment: Neuronal calcium (Fura-2) during perfusion of liposomes; assay type: cell-based, rat; conditions: continuous perfusion of N-Rh-DOPE labeled liposomes; 100 μM NMDA as positive stimulus
Experimental: FIG. 4. […] (a) Neurons were treated with 100 μg/ml heparin prior to incubation with AL-Cy3ON. Scale bar: 5 μm. (b) Fura-2 ratios in hippocampal neurons were not altered during perfusion of anionic liposomes labeled with N—Rh-DOPE but increased in response to 100 μM NMDA. Data were from a representative field of 23 neurons from among 110 neurons imaged in 5 experiments. (c) Image taken at 24 min (*) indicated the uptake of N-Rh-DOPE within the same neurons in the field.
Addition of activated a2-M (a2-M*) to cortical neurons caused a Ca^2+ influx that was both spatially and temporally discrete. […] To examine whether the endocytosis of anionic liposomes via LRP caused Ca^2+ influx into neurons, neuronal calcium currents were studied during a continuous perfusion of liposomes labeled with N—Rh-DOPE.
Liposomes labeled with N—Rh-DOPE were prepared in a manner identical to that described in Example 1 for liposomes encapsulating Cy3ONs except that the lipid films contained 1-2.5 mole percent N—Rh-DOPE and the liposomes were prepared with buffer alone (i.e., without ONs).

hippocampal neurons [4] = experiment: Endocytosis assays: agents acting on AL-Cy3ON internalization; assay type: cell-based, rat; conditions: 10 minutes pretreatment (0.45 M sucrose, 1 μM FK506, 500 nM RAP, 100 μg/ml heparin or protamine sulfate, 5 μg/ml nocodazole, 10 μg/ml cytochalasin D, 100 nM wortmannin), then AL-Cy3ONs 30 minutes at 37° C.
Experimental: Endocytosis Assays. The following agents were used to manipulate specific steps of the endocytic cycle: 0.45 M hyperosmolar sucrose (ICN biochemicals), 1 μM FK-506 (Calbiochem), and 100 nM wortmannin, 5 μg/ml nocodazole, 10 μg/ml cytochalasin D, 100 μg/ml heparin and 100 μg/ml protamine sulfate, (all from Sigma-Aldrich). Receptor-associated protein (RAP) was a generous gift from Dr. Guojun Bu (Washington University, St. Louis, Mo.) and was used at a concentration of 500 nM (Bu et al., 1994). Cells were treated with the drugs or RAP for 10 minutes prior to incubation with AL-Cy3ONs for 30 minutes at 37° C. and fixed for imaging.
(§1) Confocal Microscopy and Image Analysis. Imaging was performed on a Leica TCS 4D confocal microscope (Deerfield, Ill.) equipped with a Mercury/Xenon lamp and argon/krypton laser. Cells were excited using the 488 nm laser line to detect Oregon Green 488-Transferrin and Alexa488-Dextran, and the emitted fluorescence was collected using a 515 long-pass filter. The 568 nm laser line was used to excite Cy3 and N—Rh-DOPE (LP590 emission). Cells were imaged at a plane midway between the substrate-attached plasma membrane and the top of the cell, such that neuronal nuclei were clearly identifiable. In some cases, the entire volume of the cell was scanned in 0.5 μm increments. Optimal images were obtained by averaging 16 images in the line-scan mode at the same fixed gains for all experiments. All fluorescent images presented in figures were equally contrast enhanced using ADOBE PHOTOSHOP (Adobe, Mountain View, Calif.).

hippocampal neurons [5] = experiment: Colocalization with transferrin (early and recycling endosomes); assay type: cell-based, rat; conditions: delivered in anionic liposomes
Experimental: (§2) Colocalization of Lipids and Oligonucleotides with Transferrin and Dextran. Intracellular fates of endocytosed liposomes and ONs were determined by comparing their intracellular distributions with that of Oregon Green 488-Transferrin (OG-Tf) and Alexa488-dextran (Molecular Probes, Eugene, Oreg.) used as markers for the recycling and lysosomal compartments, respectively. Neurons were incubated with AL-Cy3ONs and either 100 μg/ml OG-Tf, for 30 minutes, 1 hour or 3 hours; or with 1 mg/ml Alexa488-dextran for 3 hours. For the lipid transport experiments, neurons were incubated with liposomes labeled with N—Rh-DOPE and either OG-TF, for 30 minutes, 1 hour, or 3 hours; or with 1 mg/ml Alexa-dextran for 3 hours. In another set of experiments, neurons were incubated with AL-Cy3ONs for 30 minutes, rinsed and chased with 1 mg/ml Alexa 488 dextran for 3 hours. Cells were rinsed and fixed for imaging as described above.
as §1
(§3) All image analysis was performed using the METAMORPH Imaging System software (Universal Imaging, Downington, Pa.). The cell outlines for each set of double-labeled fields were traced out manually in the corresponding differential interference contrast image and then used to mask the fluorescence images. In each cell, the total fluorescence intensity was measured and the percent of Cy3 label or rhodamine label that colocalized with transferrin or dextran was calculated.

hippocampal neurons [6] = experiment: Colocalization with dextran (late endosomes and lysosomes); assay type: cell-based, rat; conditions: 3 h; delivered in anionic liposomes
Experimental: as §2
as §1, with “Optimal images were obtained by averaging 16 images in the line-scan mode at the same fixed gains for all experiments. All fluorescent images presented in figures were equally contrast enhanced using ADOBE PHOTOSHOP (Adobe, Mountain View, Calif.).” left out
as §3

[7] = 20 μM each, added 1-2 minutes before 50 μM glutamate
[8] = Lipid/ON (+/−) charge ratio 1/1
[9] = Lipid/ON (+/−) charge ratio 2/1

Compound: N#Cc1cc2[nH]c(=O)c(=O)[nH]c2cc1[N+](=O)[O-] [CNQX]
- Neuronal survival after glutamate (hippocampal neurons [1]; [7]): significantly increased the survival of glutamate-treated neurons

Compound: CC(C)CCC[C@@H](C)[C@H]1CC[C@H]2[C@@H]3CC=C4C[C@@H](OC(=O)NCCN(C)C)CC[C@]4(C)[C@H]3CC[C@]12C [DC-Chol, 3β-[N-(N′,N′-dimethylaminoethane)-carbamol] cholesterol]
- Neuronal survival (hippocampal neurons [2]; 6.25 μg DC-Chol (+/− charge ratio 1/2 for 1 μM ON), 48 hours post-glutamate): survived 48 hours post-glutamate
- Neuronal survival (hippocampal neurons [2]; 20, 40 and 100 μg DC-Chol (charge ratios 1.6/1, 3.2/1, 8/1), 48 hours post-glutamate): caused extensive neuronal loss
- % Neuronal survival (neurons; [8]): 45.7%
- % Neuronal survival (neurons; [9]): 17.3%

Compound: CCCCCCCC/C=C\CCCCCCCC(=O)OC[C@H](COP(=O)(O)OC[C@H](N)C(=O)O)OC(=O)CCCCCCC/C=C\CCCCCCCC [DOPS, 1,2-dioleoyl-sn-glycero-3-[phospho-L-serine]]
- Neuronal survival (hippocampal neurons [2]; 40 μg lipid (liposomes without AsONs), then 10 μM glutamate for 48 hours): 48%
- Effect of increasing amounts of lipid on glutamate toxicity (hippocampal neurons [2]; liposomes without AsONs, then 10 μM glutamate for 48 hours): dose-dependently exacerbate toxicity

Compound: CCCCCCCC/C=C\CCCCCCCC(=O)OCC(C[N+](C)(C)C)OC(=O)CCCCCCC/C=C\CCCCCCCC (stereo not shown) [DOTAP, 1,2-dioleoyl-3-trimethylammonium-propane]
- % Neuronal survival (neurons; [8]): 28.2%
- % Neuronal survival (neurons; [9]): ˜0%

Compound: C[C@]12N[C@H](Cc3ccccc31)c1ccccc12 [MK-801]
- Neuronal survival after glutamate (hippocampal neurons [1]; [7]): significantly increased the survival of glutamate-treated neurons

Compound: CN[C@H](CC(=O)O)C(=O)O [NMDA]
- Calcium response (Fura-2 ratios) in hippocampal neurons (hippocampal neurons [3]): increased

Compound: Cc1ccc(C(=O)Cn2c3c(sc2=N)CCCC3)cc1 [PFT-α, Pifithrin-α]
- Concentrations toxic in hippocampal cultures (hippocampal neurons [1]): 20 to 100 µM
- Neuronal survival after glutamate (hippocampal neurons [1]; 10 μM, added 3 hours before 50 μM glutamate): significantly increased the survival of glutamate-treated neurons
- Concentrations not protective (hippocampal neurons [1]; 50 μM glutamate): 0.5 to 7 µM

Compound: C=C1[C@@H](C)[C@H]2[C@H](Cc3ccccc3)NC(=O)[C@]23[C@H](OC(C)=O)/C=C/[C@@](C)(O)C(=O)[C@@H](C)C/C=C/[C@H]3[C@@H]1O [cytochalasin D]
- Effect on binding/internalization of AL-Cy3ONs by neurons (hippocampal neurons [4]): prevented both binding and internalization of the liposomes

Compound: N[C@@H](CCC(=O)O)C(=O)O [glutamate]
- Neuronal survival (hippocampal neurons [2]; 48 hour exposure to 10 μM glutamate alone): 71%

Compound: COC(=O)Nc1nc2ccc(C(=O)c3cccs3)cc2[nH]1 [nocodazole]
- Effect on binding/internalization of AL-Cy3ONs by neurons (hippocampal neurons [4]): intracellular transport was inhibited

Compound: OC[C@H]1O[C@@](CO)(O[C@H]2O[C@H](CO)[C@@H](O)[C@H](O)[C@H]2O)[C@@H](O)[C@@H]1O [sucrose]
- Effect on binding/internalization of AL-Cy3ONs by neurons (hippocampal neurons [4]): completely prevented internalization

Compound: Lissamine Rhodamine DOPE [N-Rh-DOPE]
- Percent colocalization with Transferrin (hippocampal neurons [5]; 30 min): 45.56 ± 2.2%
- Percent colocalization with Transferrin (hippocampal neurons [5]; 1 h): 51.88 ± 2.7%
- Percent colocalization with Dextran (hippocampal neurons [6]): 22.18 ± 1.5%

Compound: RAP: 39 kDa LRP receptor-associated protein, inhibitor of all known ligand interactions of LRP
- Effect on binding/internalization of AL-Cy3ONs by neurons (hippocampal neurons [4]): both binding and internalization of anionic liposomes was inhibited

Compound: heparin
- Effect on binding/internalization of AL-Cy3ONs by neurons (hippocampal neurons [4]): Neither heparin nor protamine altered the level of Cy3 fluorescence within neurons

Compound: p53 phosphodiester AsONs: free phosphodiester 5′-CTGTGAATCCTCCATGAC-3′ (SEQ ID NO:2) (unmodified DNA; listed as Rattus norvegicus)
- Neuroprotection by free ONs (hippocampal neurons [1]; without encapsulation in anionic liposomes, 50 μM glutamate, 48 hours): not neuroprotective

Compound: protamine sulfate
- Effect on binding/internalization of AL-Cy3ONs by neurons (hippocampal neurons [4]): Neither heparin nor protamine altered the level of Cy3 fluorescence within neurons
